From ChEMBL document CHEMBL1135459, “Novel class of potent 4-arylalkyl substituted 3-isoxazolol GABA(A) antagonists: synthesis, pharmacology, and molecular modeling” (J Med Chem, 2002) come the findings set out here.

Each structure is given as a SMILES string.

The first assay concerns Mus musculus. Put plainly: Convulsant effect in mice after subcutaneous (sc) administration.
Details: not given
Type of assay: functional.
As a reminder, the ED50 is the dose that gives a 50% effect, or the effect in half of the subjects. `Oc1noc(C2CCNCC2)c1Cc1ccc2ccccc2c1`: the ED50 was greater than 51 µmol/kg.

The compound `Oc1noc(C2CCNCC2)c1CCC(c1ccccc1)c1ccccc1` yielded an ED50 greater than 45 µmol/kg.

For the next assay, the system named is Mus musculus. Kind of assay: Convulsant effect in mice after intracerebroventricular (icv) administration. Type of assay: functional. The note with it: central.
The compound `Oc1noc(C2CCNCC2)c1Cc1ccc2ccccc2c1` came in with an ED50 of 0.024 µmol/kg.

Take `Oc1noc(C2CCNCC2)c1CCC(c1ccccc1)c1ccccc1`: the ED50 came to 0.21 µmol/kg.

The target in another assay is GABA-A receptor; anion channel. Put plainly: Affinity for GABA-A receptor alpha by inhibiting binding of [3H]muscimol to rat brain synaptosomes. Type of assay: subcellular.
Details: not given
Usually Ki stands for a dissociation constant, usually derived from enzyme kinetics or from competition with a known ligand. A low value points to tighter binding. `CCCCCCc1c(O)noc1C1CCNCC1` had a Ki of 4500 nM.

Regarding `CCCCCCCCc1c(O)noc1C1CCNCC1`, the Ki was determined as 1800 nM.

Consider `CC1(c2cc(O)no2)CCNCC1`, for which affinity was put at a Ki of 37000 nM.

`Oc1noc(C2CCNCC2)c1CCCC(c1ccccc1)c1ccccc1`: affinity was put at a Ki of 700 nM.

Compound `Oc1noc(C2CCNCC2)c1Cc1cccc2ccccc12` came in with a Ki of 100 nM.

Compound `Oc1noc(C2CCNCC2)c1C(c1ccccc1)c1ccccc1` showed a Ki of 960 nM.

`Oc1noc(C2CCNCC2)c1CCC(c1ccccc1)c1ccccc1`: the affinity corresponds to a Ki of 68 nM.

`Oc1noc(C2CCNCC2)c1CC1CCCCC1`: affinity was put at a Ki of 4900 nM. Compared with the last compound, the Ki is about 72-fold higher.

On to `Oc1noc(C2CCNCC2)c1CCc1cccc2ccccc12`, for which the affinity, expressed as Ki, was 1700 nM.

Compound `Oc1noc(C2CCNCC2)c1CCc1ccccc1` displayed a Ki of 5000 nM.

Consider `Oc1noc(C2CCNCC2)c1CCCc1ccccc1`, for which the Ki was determined as 1100 nM.

In turn, `Oc1noc(C2CCNCC2)c1CC(c1ccccc1)c1ccccc1` came in with a Ki of 360 nM.

Compound `Oc1noc(C2CCNCC2)c1Cc1ccc(-c2ccccc2)cc1` had a Ki of 400 nM.

`CCCc1c(O)noc1C1CCNCC1`: the affinity corresponds to a Ki of 6600 nM. Compared with the last compound, the Ki is about 16-fold higher.

In the next assay the target is Gamma-aminobutyric acid type B receptor subunit 1 (Rattus norvegicus, UniProt Q9Z0U4). Kind of assay: Affinity for GABA-B receptor by inhibiting GABA uptake into rat brain synaptosomes. Type of assay: subcellular.
Sequence of Gamma-aminobutyric acid type B receptor subunit 1 (Q9Z0U4 whole entry): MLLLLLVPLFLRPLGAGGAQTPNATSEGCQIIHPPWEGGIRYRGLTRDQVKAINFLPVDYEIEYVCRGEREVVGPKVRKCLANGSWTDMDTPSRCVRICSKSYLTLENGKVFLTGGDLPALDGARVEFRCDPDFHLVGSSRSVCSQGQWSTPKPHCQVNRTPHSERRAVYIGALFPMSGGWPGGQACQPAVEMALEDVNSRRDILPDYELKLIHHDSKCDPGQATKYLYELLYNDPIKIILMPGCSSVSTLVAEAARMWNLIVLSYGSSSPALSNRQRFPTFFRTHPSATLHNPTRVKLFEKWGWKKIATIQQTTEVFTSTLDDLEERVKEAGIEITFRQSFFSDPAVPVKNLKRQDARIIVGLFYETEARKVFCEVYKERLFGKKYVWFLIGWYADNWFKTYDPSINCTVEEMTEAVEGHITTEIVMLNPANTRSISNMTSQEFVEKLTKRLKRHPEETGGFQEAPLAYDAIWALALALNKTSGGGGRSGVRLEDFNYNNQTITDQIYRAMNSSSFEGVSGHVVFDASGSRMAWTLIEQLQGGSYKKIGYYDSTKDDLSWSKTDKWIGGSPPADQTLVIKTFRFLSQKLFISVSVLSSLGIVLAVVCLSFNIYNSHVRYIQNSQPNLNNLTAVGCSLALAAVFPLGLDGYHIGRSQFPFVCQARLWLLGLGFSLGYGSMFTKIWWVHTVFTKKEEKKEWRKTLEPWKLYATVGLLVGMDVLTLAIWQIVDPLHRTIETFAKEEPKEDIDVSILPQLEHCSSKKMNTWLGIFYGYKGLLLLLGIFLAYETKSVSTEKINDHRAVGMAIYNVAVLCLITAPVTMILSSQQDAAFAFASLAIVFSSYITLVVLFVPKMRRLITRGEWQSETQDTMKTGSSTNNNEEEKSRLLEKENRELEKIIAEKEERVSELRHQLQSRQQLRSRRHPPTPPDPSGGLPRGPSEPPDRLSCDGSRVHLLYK
Details: not given
The term IC50 denotes the concentration needed to halve the response being measured. Read a high IC50 as a need for much substance. With `CCCCCCc1c(O)noc1C1CCNCC1`, the IC50 is greater than 100 µM.

Consider `CCCCCCCCc1c(O)noc1C1CCNCC1`, for which the IC50 was greater than 100 µM.

`CC1(c2cc(O)no2)CCNCC1` registered an IC50 greater than 100 µM.

`Oc1noc(C2CCNCC2)c1Cc1ccc2ccccc2c1` came in with an IC50 greater than 10 µM.

Compound `CCc1c(O)noc1C1CCNCC1` showed an IC50 greater than 100 µM.

On to `Oc1noc(C2CCNCC2)c1CCCC(c1ccccc1)c1ccccc1`, for which the IC50 is greater than 100 µM.

With `Oc1noc(C2CCNCC2)c1Cc1c2ccccc2cc2ccccc12`, the IC50 was greater than 10 µM.

Compound `Oc1noc(C2CCNCC2)c1CCc1ccc2ccccc2c1` gave an IC50 greater than 10 µM.

For `Cc1c(O)noc1C1CCNCC1`, the IC50 is greater than 100 µM.

In the case of `Oc1noc(C2CCNCC2)c1Cc1cccc2ccccc12`, the IC50 was greater than 10 µM.

For `Oc1noc(C2CCNCC2)c1C(c1ccccc1)c1ccccc1`, the half-maximal inhibitory concentration (IC50) is greater than 10 µM.

`Oc1noc(C2CCNCC2)c1Cc1ccccc1` returned an IC50 greater than 100 µM.

Consider `Oc1noc(C2CCNCC2)c1CCC(c1ccccc1)c1ccccc1`, for which the half-maximal inhibitory concentration (IC50) is greater than 10 µM.

Take `Oc1noc(C2CCNCC2)c1CC1CCCCC1`: the 50% inhibitory concentration (IC50) was greater than 100 µM.

`Oc1noc(C2CCNCC2)c1CCc1cccc2ccccc12`: the IC50 was greater than 10 µM.

For the compound `Oc1noc(C2CCNCC2)c1CCc1ccccc1`, the concentration for half-maximal inhibition (IC50) is greater than 10 µM.

`Oc1noc(C2CCNCC2)c1CCCc1ccccc1` gave an IC50 greater than 100 µM.

`Oc1noc(C2CCNCC2)c1CC(c1ccccc1)c1ccccc1` yielded an IC50 greater than 100 µM.

Take `Oc1noc(C2CCNCC2)c1Cc1ccc(-c2ccccc2)cc1`: the IC50 is greater than 10 µM.

`CCCc1c(O)noc1C1CCNCC1` had an IC50 greater than 100 µM.

Regarding `CCCCc1c(O)noc1C1CCNCC1`, the 50% inhibitory concentration (IC50) is greater than 100 µM.

For the next assay, the species on record is Mus musculus. Put plainly: Electrophysiology using Whole-cell patch-clamp recordings in mouse embryos. Type of assay: functional, organism-based.
Details: not given
Turning to `CCCCCCc1c(O)noc1C1CCNCC1`, the half-maximal inhibitory concentration (IC50) came out at 1100 nM. In other words, the single-digit micromolar range.

The compound `CCCCCCCCc1c(O)noc1C1CCNCC1` displayed an IC50 of 440 nM.

`Oc1noc(C2CCNCC2)c1Cc1ccc2ccccc2c1` came in with an IC50 of 370 nM.

The compound `CCc1c(O)noc1C1CCNCC1` returned an IC50 of 10300 nM.

In the case of `Oc1noc(C2CCNCC2)c1CCCC(c1ccccc1)c1ccccc1`, the IC50 turned out to be 50 nM.

`Oc1noc(C2CCNCC2)c1Cc1c2ccccc2cc2ccccc12`: half-maximal inhibition (IC50) was put at 1300 nM.

Regarding `Oc1noc(C2CCNCC2)c1CCc1ccc2ccccc2c1`, the IC50 is 890 nM.

Regarding `Cc1c(O)noc1C1CCNCC1`, it took 26000 nM to reach half-maximal inhibition (IC50).

Turning to `Oc1noc(C2CCNCC2)c1Cc1cccc2ccccc12`, inhibition was half-maximal at 480 nM (IC50).

On to `Oc1noc(C2CCNCC2)c1C(c1ccccc1)c1ccccc1`, for which the midpoint of inhibition, the IC50, lay at 780 nM.

Regarding `Oc1noc(C2CCNCC2)c1Cc1ccccc1`, the concentration for half-maximal inhibition (IC50) was 4000 nM.

In the case of `Oc1noc(C2CCNCC2)c1CCC(c1ccccc1)c1ccccc1`, the half-inhibitory concentration (IC50) came out at 20 nM.

Take `Oc1noc(C2CCNCC2)c1CC1CCCCC1`: inhibition was half-maximal at 1100 nM (IC50).

As for `Oc1noc(C2CCNCC2)c1CCc1cccc2ccccc12`, the IC50 amounted to 1500 nM.

In turn, `Oc1noc(C2CCNCC2)c1CCc1ccccc1` had an IC50 of 4100 nM. This IC50 lies about 2.7-fold higher than the previous one.

`Oc1noc(C2CCNCC2)c1CCCc1ccccc1` returned an IC50 of 530 nM.

As to `Oc1noc(C2CCNCC2)c1CC(c1ccccc1)c1ccccc1`, the IC50 was determined as 810 nM.

`Oc1noc(C2CCNCC2)c1Cc1ccc(-c2ccccc2)cc1`: the IC50 was 710 nM.

`CCCc1c(O)noc1C1CCNCC1` showed an IC50 of 4600 nM.

Take `CCCCc1c(O)noc1C1CCNCC1`: the 50% inhibitory concentration (IC50) was 3000 nM.
